Data from paper PMC8997241, “Structurally Various Sorbicillinoids From an Endophytic Fungus Acremonium citrinum SS-g13” (Frontiers in Microbiology, 2022).
“Also recorded” adds a separate entry of the source.

Test system: J774A.1 macrophages
Test: Serum-mediated cholesterol efflux (BODIPY-cholesterol)
Type: cell-based
Details: compounds 10 µM, 24 h, then serum 6 h; pioglitazone 3 µM positive control

C/C=C/C=C/C(O)=C1/C(=O)C(C)=C(O)[C@@]2(C)O[C@@]3(O)[C@@](C)(O)C(=O)C(C(=O)CC/C=C/C)=C(O)[C@@]3(C)[C@@H]12 [Compound 11, dihydrobisvertinolone]
cholesterol efflux enhancing activity: significant cholesterol efflux enhancing activity; also recorded: exhibited cholesterol efflux enhancing activity
